Patent US20230000870A1, “METHODS OF TREATING CANCER IN BIOMARKER-IDENTIFIED PATIENTS WITH INHIBITORS OF CYCLIN-DEPENDENT KINASE 7 (CDK7)” (Syros Pharmaceuticals, Inc., priority 2019, published 2023)

Columns and labels:
CDK9/Cyclin T1 complex = CDK9/Cyclin T1 complex (Homo sapiens, UniProt P50750); assay: CDK9 kinase inhibition assay (Caliper/LabChip EZ Reader); format: biochemical; settings: CDK9/Cyclin T1 8 nM, ATP 2 mM, 15 min at 27° C.
Procedure: (§1) Compounds of the invention were assayed for inhibition of CDK7, CDK9, CDK12, and CDK2 activity at Biortus Biosciences (Jiangyin, Jiangsu Province, P.R. of China) using kinase assays for each CDK developed with a Caliper/LabChip EZ Reader (Perkin Elmer, Waltham, Mass.).
(§2) Furthermore, the CDK9 inhibition assay used CDK9/Cyclin T1 complex (8 nM) and “5-FAM-CDK9tide” peptide substrate (2 μM, synthesized fluorophore-labeled peptide with the following sequence: 5-FAM-GSRTPMY-NH2 where 5-FAM is defined above and NH2 signifies a C-terminal amide) with 10 mM MgCl2 in the buffer composition listed above. The CDK12 inhibition assay used CDK12 (aa686-1082)/Cyclin K complex (50 nM) and “5-FAM-CDK9tide” (2 μM) as defined above, with 2 mM MgCl2 in the buffer composition above. Additionally, the CDK2 inhibition assay used CDK2/Cyclin E1 complex (0.5 nM) and “5-FAM-CDK7tide” (2 μM) as defined above, with 2 mM MgCl2 in the buffer composition listed above.
(§3) The incubation period at 27° C. for each CDK inhibition assay was chosen such that the fraction of phosphorylated peptide product produced in each assay, relative to the total peptide concentration, was approximately 20% (±5%) for the uninhibited kinase (35 min. for CDK7, 35 min. for CDK2, 3 hr. for CDK12, 15 min. for CDK9).

[1] = biological target: T1, CDK12 (aa686-1082)/Cyclin K complex (Homo sapiens, UniProt Q9NYV4); assay: CDK12 kinase inhibition assay (Caliper/LabChip EZ Reader); format: biochemical; settings: CDK12 (aa686-1082)/Cyclin K 50 nM, ATP 2 mM, 3 hr at 27° C.
T1 construct: CDK12 (aa686-1082)/Cyclin K complex
Procedure: as §1, §2, §3

CDK2/Cyclin E1 complex = CDK2/Cyclin E1 complex (Homo sapiens, UniProt P24941); assay: CDK2 kinase inhibition assay (Caliper/LabChip EZ Reader); format: biochemical; settings: CDK2/Cyclin E1 0.5 nM, ATP 2 mM, 35 min at 27° C.
Procedure: as §1, §2, §3

[2] = biological target: CDK7/Cyclin H/MAT1 complex (Homo sapiens, UniProt P50613); assay: CDK7 kinase inhibition assay (Caliper/LabChip EZ Reader); format: biochemical; settings: CDK7/Cyclin H/MAT1 6 nM, ATP 2 mM, 35 min at 27° C.
Procedure: as §1, §2, §3

A673 cells = assay: Inhibition of proliferation of A673 cells (CyQUANT, 72 hour); format: cell-based, human; settings: read-out: Inhibition of Proliferation of A673 Cells (calculated IC50)
Procedure: A673 Cells: A673 cells are a cell line derived from human muscle Ewing's sarcoma. Representative compounds of the invention were tested at different concentrations (from 4 μM to […]; 0.5 log serial dilutions) for their ability to inhibit the proliferation of A673 cells. Known CDK inhibitors dinaciclib or N-((1S,3R)-3-((5-chloro-4-(1H-indol-3-yl)pyrimidin-2-yl)amino)cyclohexyl)-5-((E)-4-(dimethylamino)but-2-enamido)picolinamide and triptolide were used as positive controls. Cells were grown in Dulbecco's Modified Eagle's Medium, +10% FBS+1 mM Sodium Pyruvate. The cells were cultured at 37° C. in a humidified chamber in the presence of 5% CO2. Proliferation assays were conducted over a 72 hour time period. CyQUANT® (Life Technologies, Chicago, Ill. USA) was used to assess the anti-proliferative effects of the compounds following manufacturer's directions and utilizing the reagents supplied with the CyQUANT® kit.

CDK7/Cyclin H/MAT1 complex, sequence (P50613 whole entry): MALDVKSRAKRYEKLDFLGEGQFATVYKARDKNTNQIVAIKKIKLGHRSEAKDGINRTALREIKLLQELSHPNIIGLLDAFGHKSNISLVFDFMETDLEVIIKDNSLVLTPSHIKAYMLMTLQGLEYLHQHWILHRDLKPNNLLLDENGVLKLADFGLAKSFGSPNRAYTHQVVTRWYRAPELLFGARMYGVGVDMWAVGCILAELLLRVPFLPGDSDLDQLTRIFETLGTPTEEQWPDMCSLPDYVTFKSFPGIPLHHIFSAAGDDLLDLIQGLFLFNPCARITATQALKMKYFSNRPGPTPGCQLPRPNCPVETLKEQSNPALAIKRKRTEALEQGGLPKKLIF
CDK7/Cyclin H/MAT1 complex, sequence (P51946 whole entry partner): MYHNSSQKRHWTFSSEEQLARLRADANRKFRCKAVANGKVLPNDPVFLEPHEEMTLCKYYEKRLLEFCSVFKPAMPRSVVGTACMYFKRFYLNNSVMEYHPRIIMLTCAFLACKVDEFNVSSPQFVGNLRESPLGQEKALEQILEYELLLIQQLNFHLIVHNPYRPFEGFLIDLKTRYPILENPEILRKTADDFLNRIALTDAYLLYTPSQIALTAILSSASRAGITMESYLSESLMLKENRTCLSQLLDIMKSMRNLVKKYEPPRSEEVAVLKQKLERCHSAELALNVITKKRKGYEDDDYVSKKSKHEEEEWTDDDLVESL
CDK7/Cyclin H/MAT1 complex, sequence (P51948 whole entry partner): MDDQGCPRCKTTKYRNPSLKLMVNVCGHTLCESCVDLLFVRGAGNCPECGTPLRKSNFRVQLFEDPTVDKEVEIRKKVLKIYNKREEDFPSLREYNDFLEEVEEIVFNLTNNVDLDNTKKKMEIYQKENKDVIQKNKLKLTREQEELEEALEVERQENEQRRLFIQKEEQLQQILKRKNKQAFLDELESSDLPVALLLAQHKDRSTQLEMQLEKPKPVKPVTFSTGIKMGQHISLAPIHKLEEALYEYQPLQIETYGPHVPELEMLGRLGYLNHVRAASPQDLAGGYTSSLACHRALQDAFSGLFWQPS
T1 sequence (Q9NYV4 686-1082): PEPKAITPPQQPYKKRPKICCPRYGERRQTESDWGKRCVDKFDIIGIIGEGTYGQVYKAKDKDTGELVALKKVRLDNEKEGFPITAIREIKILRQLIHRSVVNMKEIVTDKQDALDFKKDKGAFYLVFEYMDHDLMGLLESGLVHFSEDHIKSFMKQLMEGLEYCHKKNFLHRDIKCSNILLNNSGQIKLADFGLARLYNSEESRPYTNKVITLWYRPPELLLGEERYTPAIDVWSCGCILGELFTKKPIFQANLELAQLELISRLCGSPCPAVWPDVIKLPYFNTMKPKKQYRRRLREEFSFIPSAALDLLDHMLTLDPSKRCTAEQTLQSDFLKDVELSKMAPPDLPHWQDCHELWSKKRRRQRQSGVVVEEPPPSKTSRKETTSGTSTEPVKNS
T1 sequence (O75909 whole entry partner, the tested form may be a part): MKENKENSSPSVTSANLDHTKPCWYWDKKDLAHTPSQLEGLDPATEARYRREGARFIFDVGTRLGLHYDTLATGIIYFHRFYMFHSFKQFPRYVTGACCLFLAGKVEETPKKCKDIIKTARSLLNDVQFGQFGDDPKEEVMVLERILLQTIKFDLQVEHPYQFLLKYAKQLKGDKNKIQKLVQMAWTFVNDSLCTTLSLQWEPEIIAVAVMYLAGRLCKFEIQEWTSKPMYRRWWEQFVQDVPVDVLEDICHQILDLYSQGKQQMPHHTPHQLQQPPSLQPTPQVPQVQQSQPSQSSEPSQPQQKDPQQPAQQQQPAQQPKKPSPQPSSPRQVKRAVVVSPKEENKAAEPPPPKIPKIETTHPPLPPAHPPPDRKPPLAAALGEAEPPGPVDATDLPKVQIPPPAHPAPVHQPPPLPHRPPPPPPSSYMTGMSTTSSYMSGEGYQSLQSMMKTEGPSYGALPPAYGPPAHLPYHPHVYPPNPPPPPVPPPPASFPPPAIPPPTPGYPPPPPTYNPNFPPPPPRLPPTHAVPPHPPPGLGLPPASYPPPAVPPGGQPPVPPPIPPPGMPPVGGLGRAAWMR
CDK9/Cyclin T1 complex, sequence (P50750 whole entry): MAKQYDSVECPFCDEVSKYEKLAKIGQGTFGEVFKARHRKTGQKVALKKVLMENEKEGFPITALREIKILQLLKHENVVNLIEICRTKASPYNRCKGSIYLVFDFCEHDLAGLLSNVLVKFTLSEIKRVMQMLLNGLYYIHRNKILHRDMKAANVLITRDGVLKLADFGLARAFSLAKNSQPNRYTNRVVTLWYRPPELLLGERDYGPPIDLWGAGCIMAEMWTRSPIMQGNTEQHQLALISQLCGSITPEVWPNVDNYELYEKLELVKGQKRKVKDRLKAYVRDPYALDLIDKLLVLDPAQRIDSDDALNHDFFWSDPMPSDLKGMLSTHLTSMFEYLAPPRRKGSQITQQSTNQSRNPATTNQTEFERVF
CDK9/Cyclin T1 complex, sequence (O60563 whole entry partner): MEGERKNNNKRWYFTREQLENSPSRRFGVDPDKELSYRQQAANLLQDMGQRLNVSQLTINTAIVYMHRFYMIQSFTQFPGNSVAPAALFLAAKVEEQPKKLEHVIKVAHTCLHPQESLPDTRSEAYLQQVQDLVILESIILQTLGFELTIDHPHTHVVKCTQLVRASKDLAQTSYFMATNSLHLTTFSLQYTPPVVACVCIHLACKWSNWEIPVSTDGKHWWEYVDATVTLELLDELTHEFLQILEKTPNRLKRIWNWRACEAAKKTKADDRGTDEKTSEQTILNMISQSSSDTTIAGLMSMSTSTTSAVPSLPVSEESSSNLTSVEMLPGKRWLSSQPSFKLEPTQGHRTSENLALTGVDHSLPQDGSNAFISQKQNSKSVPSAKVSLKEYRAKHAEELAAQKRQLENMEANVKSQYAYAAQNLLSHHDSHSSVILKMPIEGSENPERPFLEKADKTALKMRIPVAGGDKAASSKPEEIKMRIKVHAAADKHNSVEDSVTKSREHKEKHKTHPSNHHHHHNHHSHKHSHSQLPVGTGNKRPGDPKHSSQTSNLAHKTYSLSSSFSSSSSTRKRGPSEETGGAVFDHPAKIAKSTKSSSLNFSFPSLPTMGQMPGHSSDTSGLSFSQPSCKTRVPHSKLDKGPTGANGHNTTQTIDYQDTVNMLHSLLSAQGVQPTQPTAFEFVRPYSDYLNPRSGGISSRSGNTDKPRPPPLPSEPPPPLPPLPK

IC50 (CDK9/Cyclin T1 complex) [nM]	IC50 [1] [nM]	IC50 (CDK2/Cyclin E1 complex) [nM]	IC50 [2] [nM]	Compound	IC50 (A673 cells) [nM]
200 to 5000	200 to 5000	200 to 5000	< 20	CNS(=O)(=O)c1ccc2c(-c3nc(N[C@H]4CCCNC4)ncc3C(F)(F)F)c[nH]c2c1 [Compound 200]	20 to 200
≥ 5000	200 to 5000	≥ 5000	20 to 200	FC(F)(F)c1cnc(NC2CCCNC2)nc1-c1c[nH]c2ccc(-c3cn[nH]c3)cc12 (stereo not drawn) [Compound 177]	200 to 5000
200 to 5000	200 to 5000	200 to 5000	< 20	CCS(=O)(=O)c1ccc2c(-c3nc(NC4CCCNC4)ncc3C(F)(F)F)c[nH]c2c1 (stereo not drawn) [Compound 274]	20 to 200
200 to 5000	20 to 200	200 to 5000	< 20	CC1(C)CNC[C@@H](Nc2ncc(C(F)(F)F)c(-c3c[nH]c4ccccc34)n2)C1 [Compound 243]	< 20
200 to 5000	200 to 5000	200 to 5000	< 20	CC(C)(O)CCc1cccc2c(-c3nc(NC4CCCNC4)ncc3C(F)(F)F)c[nH]c12 (stereo not drawn) [Compound 191]	< 20
200 to 5000	200 to 5000	200 to 5000	< 20	CS(=O)(=O)Cc1ccc2c(-c3nc(NC4CCCNC4)ncc3C(F)(F)F)c[nH]c2c1 (stereo not drawn) [Compound 219]	20 to 200
200 to 5000	200 to 5000	200 to 5000	20 to 200	Cc1ccc2[nH]cc(-c3nc(NC4CCCNC4)ncc3Cl)c2c1 (stereo not drawn) [Compound 108]	200 to 5000
≥ 5000	200 to 5000	≥ 5000	20 to 200	CCc1cnc(NC2CCCNC2)nc1-c1c[nH]c2ccccc12 (stereo not drawn) [Compound 105]	20 to 200
200 to 5000	≥ 5000	≥ 5000	20 to 200	COCCn1cc(-c2nc(NC3CCCNC3)ncc2C(F)(F)F)c2ccccc21 (stereo not drawn) [Compound 123]	200 to 5000
200 to 5000	200 to 5000	200 to 5000	< 20	OC1CNCC(Nc2ncc(C(F)(F)F)c(-c3c[nH]c4ccccc34)n2)C1 (stereo not drawn) [Compound 203]	< 20
≥ 5000	200 to 5000	≥ 5000	200 to 5000	FC(F)(F)Cc1cnc(N[C@H]2CCCNC2)nc1-c1c[nH]c2ccccc12 [Compound 158]	20 to 200
200 to 5000	20 to 200	20 to 200	< 20	CNC(=O)C1CNCC(Nc2ncc(C(F)(F)F)c(-c3c[nH]c4ccccc34)n2)C1 (stereo not drawn) [Compound 253]	20 to 200
≥ 5000	≥ 5000	≥ 5000	200 to 5000	CC(O)c1cnc(NC2CCCNC2)nc1-c1c[nH]c2ccccc12 (stereo not drawn) [Compound 234]	< 20

The next lines start with the compound.

Compound	IC50 (CDK9/Cyclin T1 complex) [nM]	IC50 [1] [nM]	IC50 (CDK2/Cyclin E1 complex) [nM]	IC50 [2] [nM]	IC50 (A673 cells) [nM]
Cc1cccc2c(-c3nc(NC4CCCNC4)ncc3F)c[nH]c12 (stereo not drawn) [Compound 138]	200 to 5000	200 to 5000	200 to 5000	20 to 200	200 to 5000
CCc1cnc(NC2CCCNC2)nc1-c1n[nH]c2cc(C#N)ccc12 (stereo not drawn) [Compound 275]	200 to 5000	200 to 5000	200 to 5000	< 20	20 to 200
C=Cc1cnc(NC2CCCNC2)nc1-c1c[nH]c2ccccc12 (stereo not drawn) [Compound 218]	200 to 5000	200 to 5000	200 to 5000	< 20	20 to 200
CC(O)c1cnc(NC2CCCNC2)nc1-c1c[nH]c2ccccc12 (stereo not drawn) [Compound 239]	≥ 5000	≥ 5000	≥ 5000	200 to 5000	200 to 5000
CN1CCCC(Nc2ncc(Cl)c(-c3c[nH]c4ccccc34)n2)C1 (stereo not drawn) [Compound 136]	200 to 5000	200 to 5000	200 to 5000	< 20	20 to 200
O=C(O)c1cccc2c(-c3nc(NC4CCCNC4)ncc3Cl)c[nH]c12 (stereo not drawn) [Compound 154]	200 to 5000	200 to 5000	≥ 5000	20 to 200	200 to 5000
Clc1cnc(NC2CCCNC2)nc1-c1c[nH]c2ccncc12 (stereo not drawn) [Compound 117]	200 to 5000	200 to 5000	200 to 5000	20 to 200	20 to 200
COCCn1cc(-c2nc(NC3CCCNC3)ncc2Cl)c2ccccc21 (stereo not drawn) [Compound 122]	200 to 5000	≥ 5000	≥ 5000	200 to 5000	200 to 5000
O=C(C1CCC(Nc2ncc(C(F)(F)F)c(-c3c[nH]c4ccccc34)n2)CN1)N1CCCC1 (stereo not drawn) [Compound 228]	200 to 5000	200 to 5000	200 to 5000	< 20	20 to 200
O=S1(=O)CCN(c2cccc3c(-c4nc(NC5CCCNC5)ncc4Cl)c[nH]c23)CC1 (stereo not drawn) [Compound 196]	200 to 5000	200 to 5000	200 to 5000	< 20	20 to 200
Ic1cnc(NC2CCCNC2)nc1-c1c[nH]c2ccccc12 (stereo not drawn) [Compound 147]	200 to 5000	200 to 5000	20 to 200	< 20	< 20
CCC(=O)NC1CNCC(Nc2ncc(C(F)(F)F)c(-c3c[nH]c4c(S(C)(=O)=O)cccc34)n2)C1 (stereo not drawn) [Compound 259]	200 to 5000	200 to 5000	200 to 5000	< 20	20 to 200
CC(=O)c1cnc(NC2CCCNC2)nc1-c1c[nH]c2ccccc12 (stereo not drawn) [Compound 208]	≥ 5000	200 to 5000	≥ 5000	20 to 200	20 to 200
CCc1cnc(NC2CCCNC2)nc1-c1c[nH]c2ncc(F)cc12 (stereo not drawn) [Compound 231]	≥ 5000	≥ 5000	≥ 5000	≥ 5000	200 to 5000
FC(F)(F)c1cnc(N[C@@H]2CNCc3ccccc32)nc1-c1c[nH]c2ccccc12 [Compound 215]	≥ 5000	≥ 5000	≥ 5000	20 to 200	200 to 5000
N#Cc1cnc(NC2CCCNC2)nc1-c1c[nH]c2ccccc12 (stereo not drawn) [Compound 157]	200 to 5000	200 to 5000	200 to 5000	< 20	< 20
Clc1cnc(N[C@H]2CCCNC2)nc1-c1c[nH]c2c(N3CCOCC3)cccc12 [Compound 150]	200 to 5000	200 to 5000	200 to 5000	20 to 200	20 to 200
FC1CCNCC1Nc1ncc(Cl)c(-c2c[nH]c3ccccc23)n1 (stereo not drawn) [Compound 121]	200 to 5000	200 to 5000	200 to 5000	20 to 200	20 to 200
Clc1cnc(NC2CCCNC2)nc1-c1c[nH]c2ccccc12 (stereo not drawn) [Compound 100]	200 to 5000	200 to 5000	200 to 5000	< 20	< 20
CC(O)c1cnc(NC2CCCNC2)nc1-c1c[nH]c2ccccc12 (stereo not drawn) [Compound 238]	≥ 5000	≥ 5000	≥ 5000	200 to 5000	200 to 5000
Fc1cccc2c(-c3nc(NC4CCCNC4)ncc3Cl)n[nH]c12 (stereo not drawn) [Compound 155]	200 to 5000	200 to 5000	200 to 5000	20 to 200	< 20
Clc1cnc(NC2CN3CCC2CC3)nc1-c1c[nH]c2ccccc12 (stereo not drawn) [Compound 131]	≥ 5000	≥ 5000	≥ 5000	≥ 5000	200 to 5000
COCCN1CCCC(Nc2ncc(Cl)c(-c3c[nH]c4ccccc34)n2)C1 (stereo not drawn) [Compound 149]	200 to 5000	200 to 5000	200 to 5000	20 to 200	20 to 200
